The values that follow come from patent US20250281430A1, “BUPROPION AS A MODULATOR OF DRUG ACTIVITY” (ANTECIP BIOVENTURES II LLC, priority 2022, published 2025).

The nature of data set [1]: Solubility of the powder in water. It counts as physicochemical.
Data set [2] is described as follows: Pharmacokinetics after administration of the subject combination. Conditions: for Cmax relative to the peak level of bupropion: after administration of the subject combination; for apparent elimination half-life (metabolite): subject combination.

Counter-ions that a name gives are not always drawn.

For `CC(NC(C)(C)C)C(=O)c1cccc(Cl)c1` (racemic) [Bupropion hydrochloride, (±)-1-(3-chlorophenyl)-2-[(1,1-dimethylethyl)amino]-1-propanone hydrochloride], the solubility in water entry in data set [1] was “highly soluble in water”.

`COc1ccc2c(c1)[C@]13CCCC[C@@H]1[C@H](C2)N(C)CC3` [dextromethorphan, reference compound]: in data set [2] (co-administered with bupropion, steady state, dextromethorphan 30 to 60 mg, bupropion 75 to 150 mg), the “dose proportionality of pharmacokinetics (AUC and Cmax)” value was “nonlinear pharmacokinetics at steady state”. The “Cmax when administered with food” value in data set [2] (subject combination with food) is listed as “unchanged”.

For `CC(NC(C)(C)C)C(O)c1cccc(Cl)c1` (stereo not drawn) [erythrohydroxybupropion], in data set [2], the “Cmax relative to the peak level of bupropion” value is listed as “approximately equal to” and the “apparent elimination half-life (metabolite)” value (shortened to “apparent elimination half-life”) is approximately 44 h.

For the compound `C[C@H]1NC(C)(C)CO[C@]1(O)c1cccc(Cl)c1` [hydroxybupropion], in data set [2], the “Cmax relative to the peak level of bupropion” value was “approximately 14 times” and the “apparent elimination half-life” value is recorded as “approximately 35 hours”.

`C[C@H](NC(C)(C)C)[C@@H](O)c1cccc(Cl)c1` [threohydroxybupropion]: in data set [2], the “Cmax relative to the peak level of bupropion” value is “about 5 times” and the “apparent elimination half-life” value is approximately 33 h.
